Test results from patent US5688488A, “Composition and method for tumor imaging” (priority 1995, dated 1997).

Tests used:
physchem = type: physicochemical; conditions: water
Procedure: The crude product contained a mixture of folate-deferoxamine conjugates, wherein the folate is linked to DF via its α-carboxyl or γ-carboxyl group as well as unreacted folic acid. The two isomers of DF-folate were isolated and purified on a weak anion-exchange column. Briefly, the product mixture was loaded onto a 1.5 cm×15 cm […] column pre-equilibrated in 10 mM NH4 CO3 buffer (pH 7.9). The column was washed with 50 mL 10 mM NH4 HCO3 and then eluted with a 500 mL gradient of 80-180 mM NH4 HCO3 followed by 150 mL 500 mM NH4 HCO3. Three folate-containing peaks were obtained as detected by UV absorbance at 363 nm. Each peak was collected, lyophilized, and redissolved in deionized water. The purity of each component was confirmed by reverse-phase high pressure liquid chromatography (HPLC) with a 10 mm×250 mm Licrosorb RP-18 column (Altech, Deerfield, Ill.), and evaluation of the conjugates' molecular weights was determined by fast-atom bombardment mass spectroscopy (FAB-MS). The characteristic pKa values of the two DF-folate isomers were obtained by titration on a pH/ion analyzer (Corning, Corning, N.Y.). […] Since the two isoforms of DF-folate conjugate retain either a free γ-carboxyl or free α-carboxyl, they can be distinguished from each other and from unreacted folic acid by their characteristic pKa values, which were determined by titration.

[1] = biological target: T1, KB cell folate-binding protein (Homo sapiens, UniProt P15328); test: Competitive binding assay using [^3 H]folic acid on KB cells; conditions: equimolar amount (100 pmoles each), 30 min, 4° C.
T1 construct: endogenous in cells; host or cells: KB cells
T1 sequence (P15328 25-257): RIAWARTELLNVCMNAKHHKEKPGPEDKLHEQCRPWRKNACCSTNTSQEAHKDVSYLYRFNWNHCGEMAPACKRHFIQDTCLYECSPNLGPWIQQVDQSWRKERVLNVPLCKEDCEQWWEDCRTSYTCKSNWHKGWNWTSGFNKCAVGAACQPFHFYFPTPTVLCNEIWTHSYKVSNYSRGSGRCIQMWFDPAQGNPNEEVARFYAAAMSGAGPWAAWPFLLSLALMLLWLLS
Procedure: (§1) Cell Culture. KB cells, a human nasopharyngeal epidermal carcinoma cell line that greatly overexpresses the folate binding protein, were cultured continuously as a monolayer at 37° C. in a humidified atmosphere containing 5% CO2 in folate-deficient modified Eagle's medium (FDMEM) (a folate-free modified Eagle's medium supplemented with 10% (v/v) heat-inactivated fetal calf serum as the only source of folate) containing penicillin (50 units/mL), streptomycin (50 μg/mL), and 2 mM L-glutamine. The final folate concentration in the complete FDMEM is the physiological range (~2 nM). 48 h prior to each experiment, the cells were transferred to 35 mm culture dishes at 5×10^5 cells per dish and grown to ~80% confluent.
The affinity of the DF-folate(α) and DF-folate(γ) conjugates for the KB cell folate-binding protein was evaluated in a competitive binding assay using [^3 H]folic acid as the receptor ligand. Briefly, 100 pmoles of [^3 H]folic acid and 100 pmoles of either DF-folate(α) or DF-folate(γ) dissolved in phosphate-buffered saline (PBS) were added to KB cells grown ~80% confluence in 1 mL FDMEM in 35 mm culture dishes. Following a 30 min incubation at 4° C., the cells were washed 3 times with cold PBS. Cell-associated [^3 H] folic acid was then determined by liquid scintillation counting, and the cellular protein content was evaluated by the BCA protein assay.

human KB cells tumors = type: in vivo, athymic mice; conditions: 29.6 mg tumor; ~45 hours post-injection
Procedure: To test the tumor-cell-selective uptake of metal-labeled radiopharmaceuticals in vivo, ~180 μCi of ^67 Ga-deferoxamine-folate conjugate (See FIG. 3) was administered to two tumor-bearing athymic mice. Tumors were generated in athymic mice by subcutaneous injecting human KB cells into the dorsal-lateral region of the mice according to procedures familiar to those of ordinary skill in the art. After establishment of tumors in the mice, ~180 μCi of ^67 Ga-deferoxamine-folate conjugate was administered intravenously. Approximately 45 hours post-injection, gamma images were obtained and the tissue distribution of ^67 Ga quantitated.
To test the viability of the FBP-receptor as a pathway for achieving tumor-cell-selective uptake of metal-labeled radiopharmaceuticals in vivo, ~180 μCi of ^67 Ga-deferoxamine-folate conjugate was administered intravenously to two tumor-bearing athymic mice via the femoral vein nine days after subcutaneous injection of 4×10^6 human KB cells. At approximately 45 hours post-injection, gamma images were obtained, the animals were sacrificed and dissected, and the tissue distribution of tracer was quantified by gamma counting (after storage of the weighted tissue samples for decay to a suitable ^67 Ga count rate). […] The tumor to blood ratio was 1500 and 1185 and the tumor to muscle ratio was 170 and 288 for each respective mouse.

KB cells [2] = test: Uptake of ^67 Ga-DF-folate complex by cultured KB cells; type: cell-based, human; conditions: for saturating level of cellular uptake, of the total radioactivity added: concentration dependence
Procedure: as §1
Because folate and its conjugates bind to cell surface receptors at 4° C., but are capable of endocytosis only at higher temperatures, it is possible to separately evaluate the kinetics of binding the internalization of folate by measuring the rates of folate conjugate uptake at the two temperatures. […] By the end of the 30 min incubation, binding approached to saturation with ~18% of the initial radioactivity found associated with a cell surface.
Incubation at 37° C., a temperature which permits both binding and endocytosis, yielded similar kinetic results, however, maximal uptake reached 32% of the total conjugate added. Presumably, the difference in magnitude of the two cellular uptake curves reflects the ability of the folate receptor to internalize the conjugate and then recycle to the cell surface in its unoccupied form. […] This latter result is consistent with the inability of the α-conjugate to compete with free folate for the cell surface receptor.
To verify the involvement of a cell surface folate receptor in mediating the uptake of ^67 Ga-DF-folate(γ), binding and internalization of the complex were evaluated as a function of the complex's concentration. Cellular uptake of ^67 Ga-DF-folate(γ) was concentration dependent at both 4° C. and 37° C., saturating at levels of 20% and 35% of the total radioactivity added, respectively.

[3] = test system: Subcutaneous KB Cell Tumors
[4] = test system: membrane transport protein; conditions: facilitated transport by membrane transport protein; cited from earlier work
[5] = biological target: membrane-bound folate-binding-protein receptor (FBP); conditions: cited from earlier work
[6] = test system: Rat pheochromocytoma (PC-12) cells; test: Rat pheochromocytoma cell uptake of biotin conjugated proteins, fluorescent microscope; type: cell-based; conditions: 37° C., 5, 15 and 33 minutes
Procedure: Rat pheochromocytoma (PC-12) cells were obtained from America Type Culture Collection and were grown (37° C., 5% CO2 in humidified air) attached to plastic flasks for 2 to 3 weeks until confluent in a medium of 85% RMPI 1640, 10% v/v heat inactivated horse serum, and 5% fetal calf serum containing 1% streptomycin-penicillin.
Biotin and fluorescein labeled insulin was prepared.
The rat PC12 cells were grown in modified RMPI 1640 medium as a monolayer on the bottom of a culture flask. Before removing the cells, the monolayer was washed with a 20 ml portion of fresh Locke's solution. The cells were then displaced into 20 ml of the Locke's solution by gentle agitation with a stream Locke's solution. […] The tubes were allowed to incubate at 37° C. At intervals of 5, 15 and 33 minutes, 0.5 ml of each cell suspension was removed and pelleted at 10,000×g for 10 seconds. The cell pellet was washed and repelleted twice in 1 ml Locke's solution and then fixed by addition of 200 l of a 2% formalin solution in phosphate buffered saline. Thirteen microliters of the fixed cell suspension was then added to a microscope slide and viewed with the fluorescent microscope to detect internalized proteins.

[7] = test system: KB cells (a human nasopharyngeal cell line); test: Uptake of ^125 I-labeled folate-labeled protein by KB cells; type: cell-based
human HeLa cells = test: Uptake of ^125 I-labeled folate-labeled RNase by HeLa cells; type: cell-based
[8] = 17 hours after intraperitoneal injection
BHK cells = test: Ribonuclease-riboflavin uptake by BHK cells; type: cell-based; conditions: 10 μg/ml, various times (FIG. 4)
KB cells [9] = test: Visualization of ribonuclease endocytosis by KB cells using a confocal microscope; type: cell-based, human; conditions: 60 minute incubation
Procedure: RNase labeled only with fluoroscein was used as a control. Following extensive dialysis against growth medium, the control and folate-labeled RNase samples were added to separate cultures of KB cells. After 60 minute incubation, the cells were thoroughly washed and examined for uptake. […] Furthermore, using the confocal's capability of focusing on a single horizontal plane in each cultured cell, it was readily evident that vesicles filled with the fluorescent-labeled, folate-bound ribonuclease were forming on all regions of the cell surface, pinching off via endocytosis into the interior, and entering the cytoplasm. The vesicles, measuring […] across, were easily large enough to accommodate large biomolecules such as proteins and DNA plasmids.

[10] = test system: white blood cells in whole human blood; conditions: 37° C., 2 hours
Procedure: Fluorescein-labeled RNase was either conjugated to folate or left unmodified (control) following the same general procedure set forth in Example 19. The folate-conjugated and control samples were then added to freshly drawn whole human blood, incubated at 37° C. for 2 hours and then washed thoroughly and examined under the fluorescence microscope.

Molecule: CC(=O)N(O)CCCCCNC(=O)CCC(=O)N(O)CCCCCNC(=O)CCC(=O)N(O)CCCCCNC(=O)[C@H](CCC(=O)O)NC(=O)c1ccc(NCc2cnc3nc(N)[nH]c(=O)c3n2)cc1 [DF-folate(α)]
- pKa (physchem; pKa): 2.5
- decrease in bound [^3 H]folic acid [1]: no ability to compete

Molecule: CC(=O)N(O)CCCCCNC(=O)CCC(=O)N(O)CCCCCNC(=O)CCC(=O)N(O)CCCCCNC(=O)CC[C@H](NC(=O)c1ccc(NCc2cnc3nc(N)[nH]c(=O)c3n2)cc1)C(=O)O [DF-folate(γ)]
- pKa (physchem; pKa): 4.5
- decrease in bound [^3 H]folic acid [1]: 50%

Molecule: CC(=O)N([O-])CCCCCNC(=O)CCC(=O)N([O-])CCCCCNC(=O)CCC(=O)N([O-])CCCCCNC(=O)CCC(NC(=O)c1ccc(NCc2cnc3nc(N)[nH]c(=O)c3n2)cc1)C(=O)O.[67Ga+3] (stereo not drawn) [^67 Ga-DF-Folate]
- detection of tumor by gamma scintigraphy (human KB cells tumors): readily detected by gamma scintigraphy
- time to half maximal binding (KB cells [2]; 4° C.): ~ 3 min
- saturating level of cellular uptake, of the total radioactivity added (KB cells [2]; 4° C.): 20%
- initial radioactivity associated with cell surface (KB cells [2]; 4° C., end of 30 min incubation): ~ 18%
- maximal uptake, of the total conjugate added (KB cells [2]; 37° C.): 32%
- saturating level of cellular uptake, of the total radioactivity added (KB cells [2]; 37° C.): 35%
- initial cellular uptake retained (KB cells [2]; 100-fold molar excess of free folate): 0.5%
- decrease in uptake (KB cells [2]; equimolar unlabeled folic acid): 50%
- imaging of tumors in vivo with a gamma camera ([3]; 8 mm tumors): 8 mm tumors were easily imaged in vivo
- Tumor-to-Non-target Ratio: Tumor/blood ([3]; mouse, in vivo, iv, 270 min): 48 ± 5
- Tumor-to-Non-target Ratio: Tumor/kidney ([3]; mouse, in vivo, iv, 270 min): 1.4 ± 0.5
- Tumor-to-Non-target Ratio: Tumor/liver ([3]; mouse, in vivo, iv, 270 min): 5.1 ± 0.5
- Tumor-to-Non-target Ratio: Tumor/muscle ([3]; mouse, in vivo, iv, 270 min): 82 ± 16
- Percentage of Injected Dose per Gram of Tissue: Blood ([3]; mouse, in vivo, iv, 4.5 h): 0.046 ± 0.009 % of injected dose per gram
- Percentage of Injected Dose per Gram of Tissue: Heart ([3]; mouse, in vivo, iv, 4.5 h): 0.025 ± 0.005 % of injected dose per gram
- Percentage of Injected Dose per Gram of Tissue: Kidney ([3]; mouse, in vivo, iv, 4.5 h): 1.79 ± 0.82 % of injected dose per gram
- Percentage of Injected Dose per Gram of Tissue: Liver ([3]; mouse, in vivo, iv, 4.5 h): 0.43 ± 0.03 % of injected dose per gram
- Percentage of Injected Dose per Gram of Tissue: Lungs ([3]; mouse, in vivo, iv, 4.5 h): 0.052 ± 0.010 % of injected dose per gram
- Percentage of Injected Dose per Gram of Tissue: Muscle ([3]; mouse, in vivo, iv, 4.5 h): 0.028 ± 0.005 % of injected dose per gram
- Percentage of Injected Dose per Gram of Tissue: Tumor ([3]; mouse, in vivo, iv, 4.5 h): 2.22 ± 0.36 % of injected dose per gram

Molecule: Nc1nc2ncc(CNc3ccc(C(=O)N[C@@H](CCC(=O)O)C(=O)O)cc3)nc2c(=O)[nH]1 [folic acid, Folic acid, reference compound]
- pKa (physchem; pKa1): 2.5
- pKa (physchem; pKa2): 4.5
- Km [4]: 1.5 µM
- Ka [5]: 500 pM

Molecule: fluorescein labeled insulin: non-biotinylated fluorescein labeled insulin, control
- cellular internalization (fluorescent microscope) [6]: No evidence of internalization

B1: RNase-Folate: ^125 I bovine ribonuclease with 12-14 covalently bound folates per protein molecule (conjugate, UniProt P61823 27-150, looked up)
Ribonuclease pancreatic: KETAAAKFERQHMDSSTSAASSSNYCNQMMKSRNLTKDRCKPVNTFVHESLADVQAVCSQKNVACKNGQTNCYQSYSTMSITDCRETGSSKYPNCAYKTTQANKHIIVACEGNPYVPVHFDASV
modifications: 125I label; 12-14 folates
- reduction of uptake by competitive inhibition ([7]; 100-fold molar excess of unligated folate): 7 fold
- molecules per cell internalized ([7]; KB cells, after 30 minutes): 10^7 molecules per cell
- uptake by HeLa cells (human HeLa cells): corresponding results
- brain tissue uptake (delivery across the blood/brain barrier) [8]: brain tissue's preferential uptake of the folate-labeled protein

B2: RNase A-Rf (6): ^125 I ribonuclease derivatized with 6 riboflavins per protein (conjugate, UniProt P61823 27-150, looked up)
Ribonuclease pancreatic: KETAAAKFERQHMDSSTSAASSSNYCNQMMKSRNLTKDRCKPVNTFVHESLADVQAVCSQKNVACKNGQTNCYQSYSTMSITDCRETGSSKYPNCAYKTTQANKHIIVACEGNPYVPVHFDASV
modifications: 125I label; 6 riboflavins
notes: ^125 I ribonuclease derivatized with 6 riboflavins per protein
- uptake of ^125 I-ribonuclease by BHK cells (BHK cells): highest rate of uptake

B3: folate-labeled RNase: Bovine ribonuclease labeled with fluorescein isothiocyanate and further labeled with folate (conjugate, UniProt P61823 27-150, looked up)
Ribonuclease pancreatic: KETAAAKFERQHMDSSTSAASSSNYCNQMMKSRNLTKDRCKPVNTFVHESLADVQAVCSQKNVACKNGQTNCYQSYSTMSITDCRETGSSKYPNCAYKTTQANKHIIVACEGNPYVPVHFDASV
modifications: fluorescein and folate conjugated
- internal fluorescence (confocal microscope) (KB cells [9]): Only the folate-labeled samples displayed any internal fluorescence
- cell fluorescence (fluorescence microscope) [10]: found to fluoresce
